{"source": "patent US20160235807A1", "about": "“AGONISTS OF GUANYLATE CYCLASE USEFUL FOR DOWNREGULATION OF PRO-INFLAMMATORY CYTOKINES” (SYNERGY PHARMACEUTICALS, INC., priority 2013, published 2016)", "key": {"NF-κB": {"test_system": "NF-κB", "experiment": "Inhibition of NF-κB signaling in LPS-stimulated T84 cells, Western blot", "format": "cell-based, human", "procedure": "Approximately 1.5×10^6 T84 cells were seeded into 100 mm dishes and cultured essentially as described (Shailubhai et al. 2000). At 85-90% confluence, cells were washed and treated with 10 μg/ml lipopolysaccharides (LPS) from Escherichia coli (Sigma-Aldrich, St. Louis, Mo.) for 4 h. Subsequent to LPS treatment, cells were washed and replenished with fresh media containing 8-Bromo-cyclic GMP (8-Br-cGMP) at 0, 0.1, 1, 10, 100 and 1000 μM (Enzo Life Science, Farmingdale, N.Y.), or SP-333 at 0, 0.01, 0.1, 1 and 10 μM together with 500 μM of phosphodiesterase inhibitor Zaprinast (Sigma-Aldrich, St. Louis, Mo.) for 16 h before harvest. For analyzing phosphorylation status of IKK-α/β, T84 cells were stimulated with LPS (10 μg/ml) for 4 h followed by treatment with 0.1 and 1.0 μM of SP-333 in the presence of 500 μM Zaprinast, for 2 h. The control cells (without LPS treatment) were washed and refilled with fresh media and harvested simultaneously with treated cells. Nuclear and cytosolic extracts were prepared by the previously described method (Aiamkitsumrit et al. 2007). Protein concentration was measured with a Bio-Rad protein assay kit (Bio-Rad, Hercules, Calif.). The extracts were stored at −80° C. until use.\nT84 cells at 85-90% confluence were washed and treated with 10 μg/ml Escherichia coli LPS (Sigma-Aldrich, St. Louis, Mo.) for 4 h.\nWestern Blot analysis: This was performed essentially as described^21 employing either 50 μg of cytoplasmic or 25 μg proteins of the nuclear fractions. The blots were probed overnight with primary antibodies of interest (anti-p65 antibody, 1:200 dilution; anti-IκB antibody 1:500 dilution; anti-phosphorylated p65 antibody, 1:250 dilution; anti-phosphorylated IκB antibody 1:250 dilution; all were from Santa Cruz Biotechnology (Santa Cruz, Calif.). Anti-IKK-β and phosphorylated IKK-α/β (Ser 176/180) were purchased from Cell Signaling Technology, Boston, Mass. and used at 1:500 dilution; anti-mouse or anti-rabbit antibodies conjugated to […] were used for chemiluminescence detection as recommended by manufacturer (GE Healthcare, Piscataway, N.J.)."}, "[1]": {"experiment": "Non-clinical safety and toxicology studies", "details": "rodents and monkeys, oral"}}, "note": "Bridge positions count the residues as written; N and C are the ends. Square brackets hold non-standard residues; d marks the D form. Peptide text beside a SMILES is read from it."}
{"smiles": "CC(C)C[C@@H]1NC(=O)[C@H](CCC(=O)O)NC(=O)[C@@H](NC(=O)[C@H](CCC(=O)O)NC(=O)[C@H](CC(=O)O)NC(=O)[C@H](N)CC(N)=O)CSSC[C@@H]2NC(=O)[C@H](C)NC(=O)[C@H](C(C)C)NC(=O)[C@H](CC(N)=O)NC(=O)[C@H](C(C)C)NC(=O)[C@H](CSSC[C@@H](C(=O)N[C@H](CC(C)C)C(=O)O)NC(=O)CNC(=O)[C@H]([C@@H](C)O)NC2=O)NC1=O", "note": "[SP-333, dAsn^1-Asp^2-Glu^3-Cys^4-Glu^5-Leu^6-Cys^7-Val^8-Asn^9-Val^10-Ala^11-Cys^12-Thr^13-Gly^14-Cys^15-dLeu^16] (H-[dN]DECELCVNVACTGC[dL]-OH; disulfide 4-12, 7-15; N-terminus and C-terminus assumed)", "values": [{"measurement": "levels of phospho-p65", "setting": "NF-κB; LPS 10 μg/ml 4 h, then SP-333 (1.0 and 10 μM) 16 h, zaprinast 500 μM", "value": "reduced levels of phospho-p65 in a dose-dependent manner"}, {"measurement": "levels of IκBα", "setting": "NF-κB; LPS-activated T84 cells", "value": "increase"}, {"measurement": "levels of phospho-IκBα", "setting": "NF-κB; LPS-activated T84 cells", "value": "reduced"}, {"measurement": "level of total IKKβ", "setting": "NF-κB; LPS-activated T84 cells, FIG. 3C", "value": "remained unchanged"}, {"measurement": "LPS-mediated increase in phosphorylation of IKKβ", "setting": "NF-κB; SP-333 1 μM, 2 h after LPS 4 h", "value": "completely reversed"}, {"measurement": "LPS induced activation of NF-κB", "setting": "NF-κB; T84 cells", "value": "inhibited"}, {"measurement": "non-clinical safety and toxicology", "setting": "[1]", "value": "orally-safe drug candidate"}]}
